From patent publication US20250177351A1, “ISOINDOLINE COMPOSITIONS AND METHODS FOR TREATING NEURODEGENERATIVE DISEASE” (Cognition Therapeutics, Inc., priority 2022, published 2025)
Marks after values point to notes of the source that are not given here.

Legend:
[1] = Phase 1 MAD study: CT1812 concentration in CSF; format: in vivo, human; details: humans, from CSF levels
From the text: CT1812 was quantitated in CSF using a validated LC-MS/MS method.

[2] = test system: DIV21 hippocampal/cortical cultures with Aβ oligomers; test: Neurogranin expression study in vitro; format: cell-based; details: Aβ42 oligomers 500 nM, 1 hr, followed by CT1812 4.8 nM, 24 hr
Protocol: Neurons were fixed in 3.75% formaldehyde and stained with full-length neurogranin (Abcam catalogue #ab23570, used in combination with novel Ng7 to detect full length neurogranin inAlzheimer's disease patient brain IP; Kvartsberg et al. 2015 Blennow lab), MAP2 (Millipore), and 4G8 (Biolegend) antibodies. Imaging was performed on Cellomics VX automated microscope with a 20×, 0.75 NA objective and analyzed using a compartmental analysis algorithm to measure staining in the nucleus versus cytoplasm.

[3] = Phase 1 single ascending dose (SAD)/food-effect study: plasma pharmacokinetics; format: in vivo, human
Protocol: (§1) A Phase 1, two-part single and multiple ascending dose study was conducted in 7 and 4 cohorts of healthy human subjects respectively. […] In Part B, subjects were administered 280, 560, and 840 mg once daily for 14 days (8:2 A:P per cohort). An elderly cohort, age 65-75, was dosed at 560 mg once daily for 14 days (7:2 A:P). […] Cognitive testing was performed in the healthy elderly cohort at baseline and at Day 14 of treatment.
Part A was a single ascending dose cohort study in which healthy, young subjects (less than 65 years old) received one dose of study drug in the morning after an overnight fast. Cohort dosing started at 10 mg and increased to 30 mg, 90 mg, 180 mg, 450 mg, and 1120 mg in subsequent cohorts. Six drug-treated and two placebo-treated subjects were randomized in each cohort. A seventh cohort of six subjects each received a single 90 mg dose of drug 30 min. after a meal. Following completion of all safety assessments and blood draws for PK analyses, subjects were discharged on Day 3.
(§2) In Part A, blood draws for assessment of PK parameters occurred pre-dose and at 15, 30, 45, 60, and 90 minutes post dose as well as at 2, 3, 4, 8, 12, 24, 36, and 48 hours post dose. […] In Part B, blood samples for plasma PK analysis were taken on Day 1 at pre-dose and at 2 hours post-dose, on Day 3 at pre-dose and at 15, 30 and 45 minutes and 1, 2, 3, 4, 8, 12 and 24 hours post-dose, on Days 4, 6, 8 and 10 at pre-dose and at 1.5 hours post-dose and following the final dose on Day 14 at pre-dose and 15, 30 and 45 minutes and 1, 2, 4, 8, 12, 24, 36 and 48 hours post-dose.
(§3) This was assessed by analysis of variance (ANOVA) of log-transformed Cmax, AUC0-24, AUC0-48, and/or AUC0-inf, using a model with factors for treatment (fed status or age [young vs. elderly] status) and subject within sequence. Treatment mean differences and 90% confidence intervals of the log transformed PK parameters were back-transformed, to present the geometric least squares means ratios and 90% confidence limits.

[4] = Phase 1 multiple ascending dose (MAD) study: plasma pharmacokinetics; format: in vivo, human; design: CLss/F: unit not given here; details: for CLss/F / t1/2: MAD
Protocol: as §1
In Part B, healthy young subjects in each cohort received the same dose once daily for 14 days after overnight fasting. Cohort dosing started at 280 mg, followed by 560 mg and 840 mg in subsequent cohorts. In each cohort, eight subjects received drug and two received placebo. A fourth cohort of healthy elderly subjects (≥65 years old) received a 560 mg dose vs. placebo daily for 14 days (seven active, two placebo).
Subjects were dosed in the morning with 240 mL of water after an 8-hour fast, and remained in a semi-reclined position for 1 hour and fasting for 2 hours post-administration, except for the fed cohort in Part A. Subjects in each MAD cohort were confined to the clinical facility from check-in on Day 0 until the pharmacokinetic sample was collected on Day 16, 48 hours after administration of the last dose on Day 14. Subjects returned to the clinical facility for follow-up visits on Days 24 and 35.
as §2, §3

CYP isoenzymes = test: Drug interaction studies
sigma-2 receptor complex = molecular target: T1, sigma-2 receptor complex (Mus musculus, UniProt Q8VD00); test: Projected receptor occupancy from human CSF concentrations, based on mouse Alzheimer's disease models; format: in vivo
T1 construct: from tissue; host or cells: brain, in vivo (projection from human CSF concentrations; occupancy itself determined in transgenic mouse brain)
T1 sequence (Q8VD00 1-176): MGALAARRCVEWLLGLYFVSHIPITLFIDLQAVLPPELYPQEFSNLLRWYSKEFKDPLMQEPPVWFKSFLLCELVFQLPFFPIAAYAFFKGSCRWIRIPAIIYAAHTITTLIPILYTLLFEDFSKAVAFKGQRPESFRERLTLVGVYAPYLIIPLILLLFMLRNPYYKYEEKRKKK
Protocol: Horizontal lines indicate projected receptor occupancy based on concentration and receptor occupancy determined in pre-clinical mouse Alzheimer's disease models.
At the 840 mg dose, CSF levels reached those associated with 98% receptor occupancy.

[5] = MAD 560 mg, Day 14 (steady state)
[6] = age up to 64 years, 280 mg (n = 8), Day 14, mean
[7] = age up to 64 years, 560 mg (n = 8), Day 14, mean

With `CC(C)(C)Oc1cc(CCC(C)(C)N2Cc3ccc(S(C)(=O)=O)cc3C2)ccc1O` [CT1812] the blood-brain barrier penetration [1] was “penetrates the blood-brain barrier”, the “full length neurogranin protein expression in neurons” value [2] was “restores neurogranin expression” and the “exposure based on AUC, fed vs. fasted” value ([3]; 90 mg) was “no significant difference”. The t1/2 ([3]; SAD fasted 10 mg, Day 1, plasma, mean (n = 5)) was 12.0^‡ hr, the t1/2 ([3]; SAD fasted 450 mg (n = 6), plasma, mean) was 12.2 h and the “increase of Cmax and AUC with dose” value ([3]; SAD, 10 mg to 1120 mg) was “slightly greater than dose proportionally”. The “AUC0-48h lower under fed vs fasted conditions (geometric least-squares mean)” value ([3]; single 90 mg oral dose) was roughly 20%, the “AUC0-inf lower under fed vs fasted conditions (geometric least-squares mean)” value ([3]; single 90 mg oral dose) was roughly 20% and the “Cmax lower under fed vs fasted conditions (geometric least-squares mean)” value ([3]; single 90 mg oral dose) was “approximately 40%”. The “AUC0-24h, aged cohort vs subjects under 64 years (geometric least-squares mean)” value ([4]; MAD 560 mg, Day 3) was roughly 1.34 times, the “Cmax, aged cohort vs subjects under 64 years (geometric least-squares mean)” value ([4]; MAD 560 mg, Day 3) was “approximately 1.7 times” and the “AUC0-24h, aged cohort vs younger subjects” value [4, 5] was 1.5 times. For the same compound, the “Cmax, aged cohort vs younger subjects” value [4, 5] was 1.6 times, the “increase of Cmax and AUC with dose” value ([4]; MAD 280 to 840 mg) was “slightly greater than dose proportionally” and the CLss/F ([4]; age at least 65 years, 560 mg (n = 7), Day 14, mean) was 169^‡‡. The t1/2 ([4]; age at least 65 years, 560 mg, Day 3 (n = 4), over max. 24 hours post dose) was 8.83^†† hr, the CLss/F [4, 6] was 387 and the t1/2 [4, 6] was 12.0 h. For the same compound, the CLss/F [4, 7] was 296, the t1/2 [4, 7] was 12.3 h and the CLss/F ([4]; age up to 64 years, dose cell prints 560 mg (n = 7), Day 14, follows 840 mg Day 3) was 212^‡‡. For the same compound, the t1/2 ([4]; age up to 64 years, dose cell prints 560 mg (n = 7), Day 14, follows 840 mg Day 3 (n = 6)) was 8.93^§ hr, the accumulation in plasma ([4]; over 14 days) was “minimal accumulation” and the “interactions with CYP isoenzymes” value (CYP isoenzymes) was “minor interactions”. For the same compound, the receptor occupancy at 560 mg (sigma-2 receptor complex; 560 mg dose, read-out: receptor occupancy in transgenic mouse brain associated with human CSF level) was 95%, the “receptor occupancy in mouse brain equivalent to average human CSF concentrations” value (sigma-2 receptor complex; 560 mg-840 mg dose range, 1.5 hr post-dose) was 97-98% and the receptor occupancy at 840 mg (sigma-2 receptor complex; 840 mg dose, read-out: receptor occupancy associated with human CSF level) was 98%.
